Common to all, as to experiment: relative viability (nuclei count vs DMSO), 5 days (fraction); higher = more cells survive
Compound in the assay “Sulindac + Alpelisib”: CC1=C(CC(=O)O)c2cc(F)ccc2/C1=C\c1ccc([S+](C)[O-])cc1 [Sulindac] + Cc1nc(NC(=O)N2CCC[C@H]2C(N)=O)sc1-c1ccnc(C(C)(C)C(F)(F)F)c1 [Alpelisib] (partner 2 µM)
A digest of the protocol:
(§1)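 Cells from lung cancer lines were seeded into 1536-well plates and, one day later, dosed by pin tool. Treatments were either a single drug or a fixed dose of an anchor drug with five library-drug doses (not always all listed) in √10 steps. After 5 days, nuclei were stained in a one-step fixation (final 0.05% Triton X-100, 1% formaldehyde, 1 ug/ml Hoechst) and counted on 4× images, and relative viability is the treated-to-vehicle nuclei ratio, as the median of duplicate plates.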

Compound in the assay “Sulindac + Pemetrexed”: CC1=C(CC(=O)O)c2cc(F)ccc2/C1=C\c1ccc([S+](C)[O-])cc1 [Sulindac] + Nc1nc2[nH]cc(CCc3ccc(C(=O)N[C@@H](CCC(=O)O)C(=O)O)cc3)c2c(=O)[nH]1 [Pemetrexed] (partner 0.2 µM)
A digest of the protocol: as §1

Compound in assay [1]: O=c1[nH]cc(F)c(=O)[nH]1 [5-Fluorouracil] + CS(=O)(=O)N1CCN(Cc2cc3nc(-c4cccc5[nH]ncc45)nc(N4CCOCC4)c3s2)CC1 [Pictilisib] (partner 1 µM)
A digest of the protocol: as §1

Compound in assay [2]: O=c1[nH]cc(F)c(=O)[nH]1 [5-Fluorouracil] + C[C@]1(O)C[C@@H](c2nc(-c3ccc4ccc(-c5ccccc5)nc4c3)c3c(N)nccn32)C1 [Linsitinib] (partner 1 µM)
A digest of the protocol: as §1

One cell line from the supplement of paper PMC10307832 can be followed below.

As to UMC-11, the relative viability in the assay with Sulindac + Alpelisib (first compound 0.08 µM) amounted to 1.1; in the assay with Sulindac + Alpelisib (first compound 0.253 µM) it was 1.05; with Sulindac + Alpelisib (first compound 0.8 µM) it was 0.876; with Sulindac + Alpelisib (first compound 2.53 µM), 0.98; with Sulindac + Alpelisib (first compound 8 µM), 1.11; with Sulindac + Pemetrexed (first compound 0.08 µM), 0.853. Moreover, the relative viability with Sulindac + Pemetrexed (first compound 0.253 µM) was 0.808; in the assay with Sulindac + Pemetrexed (first compound 0.8 µM) it was 0.582; with Sulindac + Pemetrexed (first compound 2.53 µM), 0.747; in the assay with Sulindac + Pemetrexed (first compound 8 µM), 0.868; in assay [1] (first compound 0.02 µM), 0.834; in assay [1] (first compound 0.2 µM) it was 0.601. The relative viability came to 0.397 in assay [1] (first compound 0.6325 µM); 0.36 in assay [1] (first compound 2 µM); 0.969 in assay [2] (first compound 0.02 µM); 0.674 in assay [2] (first compound 0.2 µM); 0.512 in assay [2] (first compound 0.6325 µM); 0.363 in assay [2] (first compound 2 µM).
